Data reported in patent US11839636B1, “Pharmaceutical composition based on plant raw materials: #2.1” (priority 2022, dated 2023).

Tested on: malondialdehyde (MDA)
Experiment: In vitro study of antioxidant effect (FeSO4-activated malondialdehyde in blood serum)
Assay type: biochemical
Conditions: 0.1 ml sample, 0.3 ml blood serum, FeSO4, 37° C. 15 min, MDA at 535 nm
Method: Three samples were examined to evaluate antioxidant effectiveness. […] Method: evaluation was done by determining the intermediate product of the lipid oxidation process, malondialdehyde (MDA). Amount of MDA increases under the influence of ferrous sulfate (FeSO4), this moment was used as a model for the activated oxidation process. Sequence of analysis: 0.1 ml of test sample, 1 μmol of ferrous sulfate solution was added to 0.3 ml of blood serum and incubated at 37° C. for 15 min. Then 3 ml of 3% orthophosphoric acid and 1 ml of 0.6% thiobaric acid were added to the incubation mixture. The mixture was placed on a boiling water bath for one hour. Then 4 ml of butanol was added. The obtained mixture was centrifuged for 10 minutes at 3000 rpm. In the obtained supernatant, the optical density (E) was determined on a spectrometer on a wavelength of 535 nm. MDA concentration (C) was determined by the formula C=E×84.5 μmol/L. The difference between the background concentration of MDA and iron activated was 100%, while the antioxidant activity of the samples was conditionally expressed in %.

O=C(O)CN(CCN(CC(=O)O)CC(=O)O)CC(=O)O [Ethylenediaminetetraacetate]
Relative Antioxidant Activity in %: 92%
